Results from US9686984B2, “Macrocyclic picolinamides as fungicides” (DOW AGROSCIENCES LLC, priority 2014, dated 2017).
Where two headings read alike, the source gives them in different places.

What was measured:
Puccinia triticina = experiment: Wheat Brown Rust (PUCCRT) disease control on wheat seedlings; assay type: in vivo; conditions: for pest or weed control at 121.5 g/ha: Low Volume (121.5 g/H); for pest or weed control at 100 µg/mL: High Volume (100 ppm)
Description: Technical grades of materials were dissolved in acetone, which were then mixed with nine volumes of water containing 110 ppm Triton X-100. The fungicide solutions were applied onto wheat seedlings using an automated booth sprayer to run-off. All sprayed plants were allowed to air dry prior to further handling. All fungicides were evaluated using the aforementioned method for their activity vs. all target diseases, unless stated otherwise. Wheat leaf blotch and brown rust activity were also evaluated using track spray applications, in which case the fungicides were formulated as EC formulations, containing 0.1% Trycol 5941 in the spray solutions. Wheat plants (variety Yuma) were grown from seed in a greenhouse in 50% mineral soil/50% soil-less Metro mix until the first leaf was fully emerged, with 7-10 seedlings per pot. These plants were inoculated with an aqueous spore suspension of Septoria tritici either prior to or after fungicide treatments. After inoculation the plants were kept in 100% relative humidity (one day in a dark dew chamber followed by two to three days in a lighted dew chamber at 20° C.) to permit spores to germinate and infect the leaf. The plants were then transferred to a greenhouse set at 20° C. for disease to develop. When disease symptoms were fully expressed on the 1st leaves of untreated plants, infection levels were assessed on a scale of 0 to 100 percent disease severity. Percent disease control was calculated using the ratio of disease severity on treated plants relative to untreated plants. Example B: Evaluation of Fungicidal Activity: Wheat Brown Rust (Puccinia triticina; Synonym: Puccinia recondita f. sp. tritici; Bayer code PUCCRT) Wheat plants (variety Yuma) were grown from seed in a greenhouse in 50% mineral soil/50% soil-less Metro mix until the first leaf was fully emerged, with 7-10 seedlings per pot. These plants were inoculated with an aqueous spore suspension of Puccinia triticina either prior to or after fungicide treatments. After inoculation the plants were kept in a dark dew room at 22° C. with 100% relative humidity overnight to permit spores to germinate and infect the leaf. The plants were then transferred to a greenhouse set at 24° C. for disease to develop. Fungicide formulation, application and disease assessment followed the procedures as described in the Example A.

Zymoseptoria tritici = experiment: Leaf Blotch of Wheat (SEPTTR) disease control on wheat seedlings; assay type: in vivo; conditions: for pest or weed control at 121.5 g/ha: Low Volume (121.5 g/H); for pest or weed control at 100 µg/mL: High Volume (100 ppm)
Description: Example A: Evaluation of Fungicidal Activity: Leaf Blotch of Wheat (Mycosphaerella graminicola; Anamorph: Zymoseptoria tritici; Bayer code […]) Technical grades of materials were dissolved in acetone, which were then mixed with nine volumes of water containing 110 ppm Triton X-100. The fungicide solutions were applied onto wheat seedlings using an automated booth sprayer to run-off. All sprayed plants were allowed to air dry prior to further handling. All fungicides were evaluated using the aforementioned method for their activity vs. all target diseases, unless stated otherwise. Wheat leaf blotch and brown rust activity were also evaluated using track spray applications, in which case the fungicides were formulated as EC formulations, containing 0.1% Trycol 5941 in the spray solutions. Wheat plants (variety Yuma) were grown from seed in a greenhouse in 50% mineral soil/50% soil-less Metro mix until the first leaf was fully emerged, with 7-10 seedlings per pot. These plants were inoculated with an aqueous spore suspension of Septoria tritici either prior to or after fungicide treatments. After inoculation the plants were kept in 100% relative humidity (one day in a dark dew chamber followed by two to three days in a lighted dew chamber at 20° C.) to permit spores to germinate and infect the leaf. The plants were then transferred to a greenhouse set at 20° C. for disease to develop. When disease symptoms were fully expressed on the 1st leaves of untreated plants, infection levels were assessed on a scale of 0 to 100 percent disease severity. Percent disease control was calculated using the ratio of disease severity on treated plants relative to untreated plants.

Phakopsora pachyrhizi = experiment: Asian Soybean Rust (PHAKPA) disease control; assay type: in vivo; conditions: 25 ppm
Description: Example H: Evaluation of Fungicidal Activity: Asian Soybean Rust (Phakopsora pachyrhizi; Bayer Code […]) Technical grades of materials were dissolved in acetone, which were then mixed with nine volumes of water containing 0.011% Tween 20. The fungicide solutions were applied onto soybean seedlings using an automated booth sprayer to run-off. All sprayed plants were allowed to air dry prior to further handling. Soybean plants (variety Williams 82) were grown in soil-less Metro mix, with one plant per pot. Two weeks old seedlings were used for testing. Plants were inoculated either 3 days prior to or 1 day after fungicide treatments. Plants were incubated for 24 h in a dark dew room at 22° C. and 100% relative humidity then transferred to a growth room at 23° C. for disease to develop. Disease severity was assessed on the sprayed leaves.

[1] = 24 h, 1 Day Protectant, read-out: PUCCRT disease control, 1 DP
[2] = 72 h, 3 Day Curative, read-out: PUCCRT disease control, 3 DC
[3] = 24 h, 1 Day Protectant, read-out: SEPTTR disease control, 1 DP
[4] = 72 h, 3 Day Curative, read-out: SEPTTR disease control, 3 DC

SMILES | melting point [°C] | pest or weed control at 121.5 g/ha (Puccinia triticina; [1]) [%] | pest or weed control at 121.5 g/ha (Puccinia triticina; [2]) [%] | pest or weed control at 121.5 g/ha (Zymoseptoria tritici; [3]) [%] | pest or weed control at 121.5 g/ha (Zymoseptoria tritici; [4]) [%] | pest or weed control at 100 µg/mL (Puccinia triticina; [1]) [%] | pest or weed control at 100 µg/mL (Puccinia triticina; [2]) [%] | pest or weed control at 100 µg/mL (Zymoseptoria tritici; [3]) [%] | pest or weed control at 100 µg/mL (Zymoseptoria tritici; [4]) [%] | PHAKPA disease control, 1DP (Phakopsora pachyrhizi; 1 Day Protectant) | PHAKPA disease control, 3DC (Phakopsora pachyrhizi; 3 Day Curative)
COc1ccnc(C(=O)N[C@H]2CCO[C@H](CCc3ccc(F)cc3)[C@@H](CCC(C)C)[C@H](C)OC2=O)c1OCOC(C)=O [Compound 27] | 49 to 54 | > 70 | > 70 | > 70 | > 70 |  |  |  |  |  | 
COc1ccnc(C(=O)N[C@H]2CCO[C@H](CCc3ccccc3)[C@@H](CCC(C)C)[C@H](C)OC2=O)c1OCOC(C)=O [Compound 26] | 48 to 54 | > 70 | > 70 | > 70 | > 70 |  |  |  |  |  | 
CCC[C@H]1OCC[C@H](NC(=O)c2nccc(OC)c2OCOC(=O)COCC)C(=O)O[C@@H](C)[C@@H]1Cc1ccccc1 [Compound 43] |  | > 70 | > 70 | > 70 | > 70 | > 70 | > 70 | > 70 | > 70 | A (>70) | A (>70)
CCCC[C@H]1[C@H](C)OC(=O)[C@@H](NC(=O)c2nccc(OC)c2O)CCO[C@@H]1CC [Compound 67] | 44 to 46 |  |  |  |  | > 70 | > 70 | > 70 | < 70 |  | 
COc1ccnc(C(=O)N[C@H]2CCO[C@H](CCc3ccc(F)cc3)[C@@H](CCC(C)C)[C@H](C)OC2=O)c1OCOC(=O)C(C)C [Compound 39] | 49 to 54 | > 70 | > 70 | > 70 | < 70 |  |  |  |  |  | 
COc1ccnc(C(=O)N[C@H]2CCOC[C@@H](Cc3ccccc3-c3ccccc3)[C@H](C)OC2=O)c1OCOC(=O)C(C)C [Compound 40] | 54 to 59 | > 70 | > 70 | > 70 | > 70 |  |  |  |  |  | 
CCC[C@H]1OCC[C@H](NC(=O)c2nccc(OC)c2O)C(=O)O[C@@H](C)[C@@H]1Cc1ccccc1 [Compound 50] | 52 to 56 |  |  |  |  | > 70 | > 70 | > 70 | > 70 |  | 
COc1ccnc(C(=O)N[C@H]2CCO[C@H](Cc3ccccc3)[C@@H](CCC(C)C)[C@H](C)OC2=O)c1OCOC(C)=O [Compound 29] | 55 to 60 | > 70 | > 70 | > 70 | > 70 |  |  |  |  |  | 
